Experimental data as given in PubChem BioAssay (NCI).
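Dose response: 5 concentrations. Exposure: 48 h. Format: 96-well plates. Endpoint: linear interpolation; highest concentration if not reached. At the TGI there is no net growth.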

Assays:
Assay in all cases: NCI anticancer screen, dose series, 48 h
[1] = tested on: OVCAR-5 ovarian
[2] = tested on: OVCAR-4 ovarian
[3] = tested on: MOLT-4 leukemia
[4] = tested on: SK-MEL-2 melanoma
[5] = tested on: PC-3 prostate
[6] = tested on: CAKI-1 renal
[7] = tested on: DU-145 prostate
[8] = tested on: MDA-MB-435
[9] = tested on: SR leukemia
[10] = tested on: UACC-257 melanoma
[11] = tested on: K-562 leukemia
[12] = tested on: OVCAR-3 ovarian
[13] = tested on: A498 renal
[14] = tested on: KM12 colon
[15] = tested on: RPMI-8226 leukemia
[16] = tested on: ACHN renal
[17] = tested on: U251 CNS
[18] = tested on: MCF7 breast
[19] = tested on: SW-620 colon
[20] = tested on: MDA-MB-231 breast
[21] = tested on: EKVX NSCLC
[22] = tested on: SK-MEL-28 melanoma
[23] = tested on: CCRF-CEM leukemia
[24] = tested on: HL-60(TB) leukemia
[25] = tested on: NCI-H522 lung
[26] = tested on: MALME-3M melanoma
[27] = tested on: HT29 colon
[28] = tested on: RXF 393 renal
[29] = tested on: MDA-N
[30] = tested on: SK-MEL-5 melanoma
[31] = tested on: COLO 205 colon
[32] = tested on: SNB-19 CNS
[33] = tested on: SN12C renal
[34] = tested on: UACC-62 melanoma
[35] = tested on: SF-295 CNS
[36] = tested on: SF-268 CNS
[37] = tested on: A549 NSCLC
[38] = tested on: HCT-116 colon
[39] = tested on: BT-549 breast
[40] = tested on: T-47D breast
[41] = tested on: NCI/ADR-RES ovarian
[42] = tested on: SNB-75 CNS
[43] = tested on: 786-0 renal
[44] = tested on: OVCAR-8 ovarian
[45] = tested on: TK-10 renal
[46] = tested on: HCC-2998 colon
[47] = tested on: NCI-H23 lung
[48] = tested on: LOX IMVI melanoma
[49] = tested on: UO-31 renal
[50] = tested on: HCT-15 colon
[51] = tested on: SF-539 CNS
[52] = tested on: NCI-H460 lung
[53] = tested on: HOP-62 NSCLC
[54] = tested on: NCI-H226 lung
[55] = tested on: IGROV1 ovarian
[56] = tested on: SK-OV-3 ovarian
[57] = tested on: M14 melanoma

## CC1(C)[C@@H]2CC[C@@]1(C)[C@@H]1O[C@@H](O[C@@H](CN)c3cc(Cl)c(OCc4ccccc4)c(OCc4ccccc4)c3)C[C@H]21
[1]
  TGI: 0.302 µM
[2]
  TGI: 0.298 µM
[3]
  TGI: 0.341 µM
[4]
  TGI: 0.311 µM
[5]
  TGI: 0.292 µM
[6]
  TGI: 0.301 µM
[7]
  TGI: 0.332 µM
[8]
  TGI: 0.297 µM
[9]
  TGI: 0.222 µM
[10]
  TGI: 0.322 µM
[11]
  TGI: 0.478 µM
[12]
  TGI: 0.306 µM
[13]
  TGI: 0.344 µM
[14]
  TGI: 0.305 µM
[15]
  TGI: 0.225 µM
[16]
  TGI: 0.306 µM
[17]
  TGI: 0.293 µM
[18]
  TGI: 0.262 µM
[19]
  TGI: 0.43 µM
[20]
  TGI: 0.288 µM
[21]
  TGI: 0.301 µM
[22]
  TGI: 0.384 µM
[23]
  TGI: 0.364 µM
[24]
  TGI: 0.373 µM
[25]
  TGI: 0.357 µM
[26]
  TGI: 0.342 µM
[27]
  TGI: 0.284 µM
[28]
  TGI: 0.288 µM
[29]
  TGI: 0.284 µM
[30]
  TGI: 0.324 µM

## CS(=O)(=O)OCCn1c(=O)n(CCOS(C)(=O)=O)c(=O)n(CCOS(C)(=O)=O)c1=O
[1]
  TGI: > 100 µM
[2]
  TGI: > 100 µM
[3]
  TGI: > 100 µM
[31]
  TGI: > 100 µM
[32]
  TGI: > 100 µM
[33]
  TGI: > 100 µM
[6]
  TGI: > 100 µM
[7]
  TGI: > 100 µM
[8]
  TGI: > 100 µM
[34]
  TGI: > 100 µM
[35]
  TGI: > 100 µM
[36]
  TGI: > 100 µM
[9]
  TGI: > 100 µM
[37]
  TGI: > 100 µM
[10]
  TGI: > 100 µM
[11]
  TGI: > 100 µM
[12]
  TGI: > 100 µM
[38]
  TGI: > 100 µM
[13]
  TGI: > 100 µM
[14]
  TGI: > 100 µM
[39]
  TGI: > 100 µM
[15]
  TGI: > 100 µM
[40]
  TGI: > 100 µM
[41]
  TGI: > 100 µM
[16]
  TGI: > 100 µM
[17]
  TGI: > 100 µM
[18]
  TGI: > 100 µM
[19]
  TGI: > 100 µM
[20]
  TGI: > 100 µM
[42]
  TGI: > 100 µM
[43]
  TGI: > 100 µM
[44]
  TGI: > 100 µM
[45]
  TGI: > 100 µM
[46]
  TGI: > 100 µM
[47]
  TGI: > 100 µM
[21]
  TGI: > 100 µM
[48]
  TGI: > 100 µM
[49]
  TGI: > 100 µM
[22]
  TGI: > 100 µM
[23]
  TGI: > 100 µM
[50]
  TGI: > 100 µM
[51]
  TGI: > 100 µM
[52]
  TGI: > 100 µM
[53]
  TGI: > 100 µM
[24]
  TGI: > 100 µM
[54]
  TGI: > 100 µM
[26]
  TGI: > 100 µM
[27]
  TGI: > 100 µM
[28]
  TGI: > 100 µM
[55]
  TGI: > 100 µM
[29]
  TGI: > 100 µM
[30]
  TGI: > 100 µM
[56]
  TGI: > 100 µM

## CC12CC(=O)C3C(C(=O)C1)C32C (stereo not drawn)
[1]
  TGI: > 100 µM
[2]
  TGI: > 100 µM
[3]
  TGI: > 100 µM
[31]
  TGI: > 100 µM
[32]
  TGI: > 100 µM
[4]
  TGI: > 100 µM
[5]
  TGI: > 100 µM
[33]
  TGI: > 100 µM
[6]
  TGI: > 100 µM
[7]
  TGI: > 100 µM
[8]
  TGI: > 100 µM
[34]
  TGI: > 100 µM
[35]
  TGI: > 100 µM
[36]
  TGI: > 100 µM
[9]
  TGI: > 100 µM
[37]
  TGI: > 100 µM
[10]
  TGI: > 100 µM
[11]
  TGI: > 100 µM
[12]
  TGI: > 100 µM
[38]
  TGI: > 100 µM
[13]
  TGI: > 100 µM
[14]
  TGI: > 100 µM
[39]
  TGI: > 100 µM
[15]
  TGI: > 100 µM
[57]
  TGI: > 100 µM
[41]
  TGI: > 100 µM
[16]
  TGI: > 100 µM
[17]
  TGI: > 100 µM
[18]
  TGI: > 100 µM
[19]
  TGI: > 100 µM
[20]
  TGI: > 100 µM
[42]
  TGI: > 100 µM
[43]
  TGI: > 100 µM
[44]
  TGI: > 100 µM
[45]
  TGI: > 100 µM
[46]
  TGI: > 100 µM
[47]
  TGI: > 100 µM
[21]
  TGI: > 100 µM
[48]
  TGI: > 100 µM
[49]
  TGI: > 100 µM
[22]
  TGI: > 100 µM
[23]
  TGI: > 100 µM
[50]
  TGI: > 100 µM
[51]
  TGI: > 100 µM
[52]
  TGI: > 100 µM
[53]
  TGI: > 100 µM
[54]
  TGI: > 100 µM
[25]
  TGI: > 100 µM
[26]
  TGI: > 100 µM
[27]
  TGI: > 100 µM
[28]
  TGI: > 100 µM
[55]
  TGI: > 100 µM
[29]
  TGI: > 100 µM
[30]
  TGI: > 100 µM
[56]
  TGI: > 100 µM
